Measured values: patent publication US11060087B2, “Synthetic promoters for high throughput screening and gene modulation” (The Regents of the University of California, priority 2016, dated 2021)

B1: BL-3: LAMC2 synthetic promoter generated from the endogenous promoter of LAMC2 (LamS1, SEQ ID NO: 10/11) (nucleic acid, listed as Homo sapiens)
DNA 1: CGGGCCAGGTGTGCGCCCTCCTCGCTGCGAGGGGGAGCGGGCGGCTGCGGGGAGCGATTTTCCAGCCCGGTTTGTGCTCTGTGTGTTTGTCTGCCTCTGGAGGGCTGGGTCCTCCTTATTCACAGGTGAGTCACACCCTGAAACACAGGCTCTCTTCCTGTCAGGACTGAGTCAGGTAGAAGAGTCGTGCGCCCTCCTCGCTGCGAGGGGGAGCGGGCGGCTGCGGGGAGCGATTTTCCAGCCCGGTTTGTGCTCTGTGTGTTTGTCTGCCTCTGGAGGGCTGGGTCCTCCTTATTCACAGGTGAGTCACACCCTGAAACACAGGCTCTCTTCCTGTCAGGACTGAGTCAGGTAGAAGAGTCGTGCGCCCTCCTCGCTGCGAGGGGGAGCGGGCGGCTGCGGGGAGCGATTTTCCAGCCCGGTTTGTGCTCTGTGTGTTTGTCTGCCTCTGGAGGGCTGGGTCCTCCTTATTCACAGGTGAGTCACACCCTGAAACACAGGCTCTCTTCCTGTCAGGACTGAGTCAGGTAGAAGAGTCAAGCTTATAAAACCACCTGATCAAGGAAAAGGAAGGCACAGCGGAGCGCAGAGTGAGAACCACCAACCGGAATTC
DNA 2: CGGTCGGGCCAGGTGTGCGCCCTCCTCGCTGCGAGGGGGAGCGGGCGGCTGCGGGGAGCGATTTTCCAGCCCGGTTTGTGCTCTGTGTGTTTGTCTGCCTCTGGAGGGCTGGGTCCTCCTTATTCACAGGTGAGTCACACCCTGAAACACAGGCTCTCTTCCTGTCAGGACTGAGTCAGGTAGAAGAGTCGTGCGCCCTCCTCGCTGCGAGGGGGAGCGGGCGGCTGCGGGGAGCGATTTTCCAGCCCGGTTTGTGCTCTGTGTGTTTGTCTGCCTCTGGAGGGCTGGGTCCTCCTTATTCACAGGTGAGTCACACCCTGAAACACAGGCTCTCTTCCTGTCAGGACTGAGTCAGGTAGAAGAGTCGTGCGCCCTCCTCGCTGCGAGGGGGAGCGGGCGGCTGCGGGGAGCGATTTTCCAGCCCGGTTTGTGCTCTGTGTGTTTGTCTGCCTCTGGAGGGCTGGGTCCTCCTTATTCACAGGTGAGTCACACCCTGAAACACAGGCTCTCTTCCTGTCAGGACTGAGTCAGGTAGAAGAGTCAAGCTTATAAAACCACCTGATCAAGGAAAAGGAAGGCACAGCGGAGCGCAGAGTGAGAACCACCAACCG

Tests used:
islet neoplasia (INeo) = experiment: Potentiation of the INeo response to somatostatin analogues; settings: preliminary data
Text: The following are key findings in this field: 1.

BIRC5 = experiment: High-throughput screening of FDA-approved drug library, BIRC5 synthetic promoter-driven luciferase; assay type: cell-based, human; settings: BIRC5SP-Luc2-Puro MiaPaca2 cells, 48 hours after drug administration, Bright-Glo / CellTiter-Glo
Text: Differentially over-expressed BIRC5 was validated using RT-PCR in rPDAC versus matching non-tumor pancreas (FIG. 8A), as well as western blot assay of ATCC™ PDAC cell lines (FIG. 8B). These preliminary data support the WGCNA that BIRC5 is an actionable gene (AG) for rPDAC. A powerful synthetic promoter for BIRC5, BIRC5-SP (BL-2), was generated (FIG. 8C) and used for BIRC5^SP-Luc2-Puro stable transfection into MiaPaca2 cells, which in turn were used for high-throughput small molecule screening (HTS) of the FDA-approved drug library. BIRC5^SP-Luc2-Puro PDAC cells were plated on 384-well plates and 2100 FDA-approved drugs were applied to cells with a pin plate automatic system. Luciferase expression was measured in a plate reader 48 hours after drug administration using Bright-Glo™. Cell viability of treated cells was measured using CellTiter-Glo™. BIRC5-luciferase signal read outs were normalized using cell viability measurements. Inhibitory drugs include daunorubicin and paclitaxel (Kusukawa N, Ishida H, Tanase K, Ito H, Aoki Y, Ooyama N, et al. [Successful treatment with docetaxel and prednisolone for paxlitaxel and carboplatin-resistant prostate cancer]. Hinyokika kiyo Acta urologica Japonica. 2013; 59(5):301-4. PubMed PMID: 23719139), as well as other novel rPDAC drugs such as bergenin, simvastatin, fluvastatin (Garwood E R, Kumar A S, Baehner F L, Moore D H, Au A, Hylton N, et al. Fluvastatin reduces proliferation and increases apoptosis in women with high grade breast cancer. Breast cancer research and treatment. 2010; 119(1):137-44. doi: 10.1007/s10549-009-0507-x. PubMed PMID: 19728082; PubMed Central PMCID: PMC4087110; Bocci G, Fioravanti A, Orlandi P, Bernardini N, Collecchi P, Del Tacca M, et al. Fluvastatin synergistically enhances the antiproliferative effect of gemcitabine in human pancreatic cancer MIAPaCa-2 cells. British journal of cancer. 2005; 93(3):319-30. doi: 10.1038/sj.bjc.6602720. […]

[1] = test system: human primary pancreatic epithelial cells (HPPE); experiment: LAMC2 synthetic promoter luciferase reporter assay in normal cells; assay type: cell-based; settings: HPPE and human pancreatic duct epithelial cells (FIG. 23)
Text: (§1) FIG. 23 is a graph showing the relative luciferase activity of an endogenous LAMC2 promoter (LAMC2-EP-Luc), a synthetic LAMC2 promoter (LAMC2-SP-Luc), and CMV in various cell lines, in accordance with one or more embodiments of the invention.

[2] = test system: pancreatic ductal adenocarcinoma cells (PANC-1, MIA PaPc2, AsPc-1, and Capan-2); experiment: LAMC2 synthetic promoter luciferase reporter assay in PDAC cell lines; assay type: cell-based, human
Text: FIG. 22 is a graph showing the relative luciferase activity of various synthetic LAMC2 promoters (i.e. LamS1, Lams1E4T, Lams2E4T, and Lams3E4T) and CMV in various cell lines, in accordance with one or more embodiments of the invention.
as §1
LAMC2 is a key oncologic regulator of apoptosis that is also over-expressed in most cancers, including pancreatic cancer, but not in normal cells. In one aspect of the invention, a LAMC2 synthetic promoter (BL-3) generated from the endogenous promoter of LAMC2 is provided that is 1000× more powerful than the endogenous promoter and also more powerful than the cytomegalovirus (CMV) promoter in stimulating gene expression. The promoter competes with the CMV promoter, which is non-specific for cancer. The BL-3 synthetic promoter is more highly specific for cancer, especially pancreatic cancer, since it is not expressed in normal cells, including islets of Langerhans, and therefore is less toxic. The technique to generate the LAMC2 synthetic promoter (BL-3) and its uses are similar to U.S. patent application Ser. No. 14/396,967, which describes a synthetic BL-1 promoter for the insulin gene. However, the synthetic BL-1 promoter is expressed in islets of Langerhans, which therefore can lead to […] and diabetes as a toxic effect.

| Molecule | effect on the INeo response to SAs (islet neoplasia (INeo)) | effect on BIRC5-luciferase signal normalized using cell viability (BIRC5) | also measured |
| --- | --- | --- | --- |
| C[C@H](N)COC(=O)[C@H](CCCCN)NC(=O)Cc1c(-c2ccc3ccccc3c2)[nH]c2c1ccc1ccccc12 [SSTR5 small molecule agonist] | potentiates the INeo response to SAs | – | – |
| COc1c(O)cc2c(c1O)[C@@H]1O[C@H](CO)[C@@H](O)[C@H](O)[C@H]1OC2=O [bergenin] | – | Inhibitory | – |
| COc1cccc2c1C(=O)c1c(O)c3c(c(O)c1C2=O)C[C@@](O)(C(C)=O)C[C@@H]3O[C@H]1C[C@H](N)[C@H](O)[C@H](C)O1 [daunorubicin] | – | Inhibitory | – |
| CN(C)C(=N)N=C(N)N [metformin] | potentiate the INeo response to SAs | – | – |
| CC(=O)O[C@H]1C(=O)[C@@]2(C)[C@H]([C@H](OC(=O)c3ccccc3)[C@]3(O)C[C@H](OC(=O)[C@H](O)[C@@H](NC(=O)c4ccccc4)c4ccccc4)C(C)=C1C3(C)C)[C@]1(OC(C)=O)CO[C@@H]1C[C@@H]2O [paclitaxel] | – | Inhibitory | – |
| B1 | – | – | relative luciferase activity in normal pancreatic cells [1]: no activity; more powerful than the endogenous promoter in stimulating gene expression ([2]; LAMC2 synthetic promoter vs endogenous LAMC2 promoter): 1000 ×; relative luciferase activity in comparison to endogenous LAMC2 promoter and CMV promoter ([2]; PANC-1, MIA PaPc2, AsPc-1, Capan-2 (FIG. 23)): greatest amount of activity; relative luciferase activity among synthetic LAMC2 promoters and CMV ([2]; various cell lines (FIG. 22)): greatest amount of luciferase activity |
